This note sets out measurements from patent publication US12310236B2, “Encapsulant preventing lead leakage on perovskite, method for encapsulating perovskite to prevent lead leakage and perovskite photosensitive device comprising the same” (PUKYONG NATIONAL UNIVERSITY INDUSTRY—UNIVERSITY COOPERATION …, priority 2023, dated 2025).

SMILES strings stand for the structures.

The series in a line: Solvent solubility of the crown ether compounds in the coating solution. The format is physicochemical. The note with it: ethanol coating solution.

Description: We prepared a coating solution for performing the perovskite encapsulating method. 18-crown-6-ether (hereafter, referred to as a raw material) was prepared as the crown ether. A compound (hereinafter, referred to as di-benzo) in which only two benzene rings are bonded to the crown ether was prepared as a comparative group. […] The di-benzo was dissolved in ethanol at 0.01 to 0.03% by weight. […] Thus, resulting solutions were prepared.

The molecule `c1ccc2c(c1)OCCOCCOc1ccccc1OCCOCCO2` [di-benzo] yielded a solvent solubility not above 0.03 % by weight.
